Laboratory results published in US10907214B2, “Methods for predicting drug responsiveness in cancer patients” (Oncology Venture ApS, priority 2016, dated 2021).

System: patients having breast cancer
Assay: Clinical trial 2: retrospective analysis, breast cancer patients treated with cisplatin, stratified by biomarkers
Assay type: in vivo, human
Conditions: Trial 2, breast cancer, neoadj, N=24
Source text: Table 5 below summarizes the results of these studies.

N.N.[Cl][Pt][Cl] [Cisplatin, cisplatin]
overall response rate (ORR) (patients predicted in bottom 10% of responsiveness): ORR 50% | overall response rate (ORR) (patients predicted in top 10% of responsiveness): ORR 100%
